The target of the test is b-Raf(V600E) (Homo sapiens (Human), UniProt P15056, V600E). The test is described as follows: Raf/Mek Amplified Luminescence Proximity Homogeneous Assay (Alpha Screen). Format: biochemical. The settings on record: b-Raf(V600E) approximately 4 pM; biotinylated Mek, kinase dead approximately 10 nM; ATP 10 μM; pre-incubation 60 minutes; reaction 3 hours at room temperature; read-out: mut-B-RAF IC50. Put shortly: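 Raf pre-incubated with compound and kinase-dead biotinylated Mek (~10 nM) for 60 min, room temperature, in 50 mM Tris pH 7.5, 15 mM MgCl2, 0.01% BSA, 1 mM DTT; ATP-started reaction 1 or 3 h, EDTA stop. Phospho-MEK detected by anti-p-MEK1/2 AlphaScreen; IC50 by non-linear regression.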
Sequence of b-Raf(V600E) (P15056 whole entry V600E): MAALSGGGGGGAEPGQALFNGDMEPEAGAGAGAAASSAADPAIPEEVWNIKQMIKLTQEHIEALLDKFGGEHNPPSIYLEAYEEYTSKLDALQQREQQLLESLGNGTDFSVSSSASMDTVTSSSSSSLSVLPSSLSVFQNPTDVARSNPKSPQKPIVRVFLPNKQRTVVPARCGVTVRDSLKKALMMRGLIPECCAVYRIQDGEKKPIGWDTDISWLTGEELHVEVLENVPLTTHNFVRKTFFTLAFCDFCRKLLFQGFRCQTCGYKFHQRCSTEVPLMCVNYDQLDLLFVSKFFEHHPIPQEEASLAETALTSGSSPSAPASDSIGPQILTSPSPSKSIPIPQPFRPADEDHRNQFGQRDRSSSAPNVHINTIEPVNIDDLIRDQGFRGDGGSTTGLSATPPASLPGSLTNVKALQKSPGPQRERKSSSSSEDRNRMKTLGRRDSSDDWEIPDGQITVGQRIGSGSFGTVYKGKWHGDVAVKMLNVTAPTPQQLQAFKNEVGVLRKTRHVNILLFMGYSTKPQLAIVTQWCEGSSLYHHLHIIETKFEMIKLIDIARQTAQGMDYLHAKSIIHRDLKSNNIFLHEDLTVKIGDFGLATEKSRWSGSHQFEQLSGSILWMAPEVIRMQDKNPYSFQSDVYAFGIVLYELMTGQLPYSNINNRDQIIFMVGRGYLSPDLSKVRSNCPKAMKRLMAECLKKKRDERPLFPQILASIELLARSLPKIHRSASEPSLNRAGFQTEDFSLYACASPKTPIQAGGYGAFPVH

In general, IC50 refers to the concentration that inhibits the measured activity by half. Regarding `COC(=O)N[C@H](C)CNc1nccc(-c2[nH]c(C3CC3)nc2-c2cc(F)cc(NS(C)(=O)=O)c2Cl)n1` [Example 1AV, (R)-Methyl 1-(4-(4-(2-chloro-5-fluoro-3-(methylsulfonamido)phenyl)-2-cyclopropyl-1H-imidazol-5-yl)pyrimidin-2-ylamino)propan-2-ylcarbamate], the 50% inhibitory concentration (IC50) turned out to be 11 nM. As for `COC(=O)N[C@@H](C)CNc1nccc(-c2[nH]c(C(C)(C)C)nc2-c2cccc(NS(C)(=O)=O)c2)n1` [Example 1R, (S)-Methyl 1-(4-(2-tert-butyl-4-(3-(methylsulfonamido)phenyl)-1H-imidazol-5-yl)pyrimidin-2-ylamino)propan-2-ylcarbamate], the IC50 is 34.5 nM. To `CCCS(=O)(=O)Nc1cc(F)cc(-c2nc(C3CC3)[nH]c2-c2ccnc(NC)n2)c1Cl` [Example 1BX, N-(2-Chloro-3-(2-cyclopropyl-5-(2-(methylamino)pyrimidin-4-yl)-1H-imidazol-4-yl)-5-fluorophenyl)propane-1-sulfonamide] belongs 0.11 nM; to `COC(=O)N[C@@H](C)CNc1nccc(-c2[nH]c(C3CC3)nc2-c2cc(C)cc(NS(C)(=O)=O)c2Cl)n1` [Example 1AB, (S)-Methyl 1-(4-(4-(2-chloro-5-methyl-3-(methylsulfonamido)phenyl)-2-cyclopropyl-1H-imidazol-5-yl)pyrimidin-2-ylamino)propan-2-ylcarbamate], 1.1 nM; to `CCCS(=O)(=O)Nc1cc(F)cc(-c2nc(C(C)(C)C)[nH]c2-c2ccnc(NC[C@H](C)NC(=O)OC)n2)c1Cl` [Example 1AH], 1 nM. To `COC(=O)N[C@@H](C)CNc1nccc(-c2[nH]c(C3CC3)nc2-c2c(F)ccc(NS(C)(=O)=O)c2Cl)n1` [Example 2F, Methyl (2S)-1-(4-(4-(2-chloro-6-fluoro-3-(methylsulfonamido)phenyl)-2-cyclopropyl-1H-imidazol-5-yl)pyrimidin-2-ylamino)propan-2-ylcarbamate] belongs 5 nM. Regarding `CC1(c2nc(-c3cccc(NS(C)(=O)=O)c3Cl)c(-c3ccnc(NCCC#N)n3)[nH]2)CC1` [Example 1BC, N-(2-Chloro-3-(5-(2-(2-cyanoethylamino)pyrimidin-4-yl)-2-(1-methylcyclopropyl)-1H-imidazol-4-yl)phenyl)methanesulfonamide], the IC50 was found to be 1 nM.

As for `COC(=O)N[C@@H](C)CNc1nccc(-c2[nH]c(C3CC3)nc2-c2cc(F)cc(NS(C)(=O)=O)c2F)n1` [Example 1V, Methyl (2S)-1-(4-(2-cyclopropyl-4-(2,5-difluoro-3-(methylsulfonamido)phenyl)-1H-imidazol-5-yl)pyrimidin-2-ylamino)propan-2-ylcarbamate], the IC50 was 0.2 nM. Turning to `COC(=O)N[C@@H](C)CNc1nccc(-c2[nH]c(C(C)(C)C)nc2-c2cc(Cl)cc(NS(C)(=O)=O)c2F)n1` [Example 1AI, (S)-Methyl 1-(4-(2-tert-butyl-4-(5-chloro-2-fluoro-3-(methylsulfonamido)phenyl)-1H-imidazol-5-yl)pyrimidin-2-ylamino)propan-2-ylcarbamate], the IC50 worked out at 0.28 nM. On to `CC1(c2nc(-c3cc(F)cc(NS(C)(=O)=O)c3Cl)c(-c3ccnc(NCCC#N)n3)[nH]2)CC1` [Example 1AY, N-(2-Chloro-3-(5-(2-(2-cyanoethylamino)pyrimidin-4-yl)-2-(1-methylcyclopropyl)-1H-imidazol-4-yl)-5-fluorophenyl)methanesulfonamide], for which the IC50 is 0.23 nM. For `CCS(=O)(=O)Nc1cc(F)cc(-c2nc(C3CC3)[nH]c2-c2ccnc(NC[C@H](C)NC(=O)OC)n2)c1Cl` [Example 1AD, (S)-Methyl 1-(4-(4-(2-chloro-3-(ethylsulfonamido)-5-fluorophenyl)-2-cyclopropyl-1H-imidazol-5-yl)pyrimidin-2-ylamino)propan-2-ylcarbamate], the concentration for half-maximal inhibition (IC50) amounted to 0.43 nM. The result for `Nc1nccc(-c2[nH]c(C3CC3)nc2-c2cc(F)cc(NS(=O)(=O)c3c(F)cccc3F)c2Cl)n1` [Example 1BR, N-(3-(5-(2-Aminopyrimidin-4-yl)-2-cyclopropyl-1H-imidazol-4-yl)-2-chloro-5-fluorophenyl)-2,6-difluorobenzenesulfonamide] reads 0.19 nM; that for `CCCS(=O)(=O)Nc1cccc(-c2nc(C3CC3)[nH]c2-c2ccnc(NC[C@H](C)NC(=O)OC)n2)c1F` [Example 4C, (S)-Methyl 1-(4-(2-cyclopropyl-4-(2-fluoro-3-(propylsulfonamido)phenyl)-1H-imidazol-5-yl)pyrimidin-2-ylamino)propan-2-ylcarbamate], 0.16 nM.

`CS(=O)(=O)Nc1cccc(-c2nc(C3CC3)[nH]c2-c2ccnc(NCCC#N)n2)c1F` [Example 2E, N-(3-(5-(2-(2-Cyanoethylamino)pyrimidin-4-yl)-2-cyclopropyl-1H-imidazol-4-yl)-2-fluorophenyl)methanesulfonamide]: the half-maximal inhibitory concentration (IC50) was found to be 4 nM.

Regarding `CCS(=O)(=O)Nc1cc(Cl)cc(-c2nc(C(C)(C)C)[nH]c2-c2ccnc(NC[C@H](C)NC(=O)OC)n2)c1F` [Example 1AJ, (S)-Methyl 1-(4-(2-tert-butyl-4-(5-chloro-3-(ethylsulfonamido)-2-fluorophenyl)-1H-imidazol-5-yl)pyrimidin-2-ylamino)propan-2-ylcarbamate], the IC50 turned out to be 0.46 nM. For `COC(=O)N[C@@H](C)CNc1nccc(-c2nc(C3CC3)[nH]c2-c2cc(Cl)cc(NS(=O)(=O)CC3CC3)c2F)n1` [Example 1AC, (S)-Methyl 1-(4-(5-(5-chloro-3-(cyclopropylmethylsulfonamido)-2-fluorophenyl)-2-cyclopropyl-1H-imidazol-4-yl)pyrimidin-2-ylamino)propan-2-ylcarbamate], the IC50 came to 0.26 nM. For the compound `CCCS(=O)(=O)Nc1cc(Cl)cc(-c2[nH]c(C3CC3)nc2-c2ccnc(NC[C@H](C)NC(=O)OC)n2)c1F` [Example 1W, (S)-Methyl 1-(4-(5-(5-chloro-2-fluoro-3-(propylsulfonamido)phenyl)-2-cyclopropyl-1H-imidazol-4-yl)pyrimidin-2-ylamino)propan-2-ylcarbamate], the IC50 is 0.89 nM. With `COC(=O)N[C@@H](C)CNc1nccc(-c2[nH]c(C(C)(C)C)nc2-c2cc(Cl)cc(NS(=O)(=O)C3CC3)c2)n1` [Example 1F, (S)-methyl 1-(4-(2-tert-butyl-4-(3-chloro-5-(cyclopropanesulfonamido)phenyl)-1H-imidazol-5-yl)pyrimidin-2-ylamino)propan-2-ylcarbamate], the 50% inhibitory concentration (IC50) came to 0.1 nM.

Consider `COC(=O)N[C@@H](C)CNc1nccc(-c2[nH]c(C(C)(C)C)nc2-c2cc(Cl)cc(NS(=O)(=O)CC(C)C)c2)n1` [Example 1G, (S)-methyl 1-(4-(2-tert-butyl-4-(3-chloro-5-(2-methylpropylsulfonamido)phenyl)-1H-imidazol-5-yl)pyrimidin-2-ylamino)propan-2-ylcarbamate], for which the half-inhibitory concentration (IC50) stood at 0.3 nM. The result for `CS(=O)(=O)Nc1cc(F)cc(-c2nc(C3CC3)[nH]c2-c2ccnc(N)n2)c1Cl` [Example 1BQ, N-(3-(5-(2-Aminopyrimidin-4-yl)-2-cyclopropyl-1H-imidazol-4-yl)-2-chloro-5-fluorophenyl)methanesulfonamide] reads 12 nM.

For the origin of these results see patent US8563553B2, “Compounds and compositions as protein kinase inhibitors” (Novartis AG, priority 2009, dated 2013).
